{
  "source": "patent US11406664B2",
  "about": "“Ferric maltol compositions for use in the treatment or prevention of cancer and tumours” (Shield TX (UK) Limited, priority 2016, dated 2022)",
  "key": {"[1]": {"tested_on": "HT29 human epithelial colorectal adenocarcinoma cell line", "experiment": "Proliferation assay by real time live cell imaging (Incucyte), HT29", "assay_type": "cell-based", "settings": "for effect on cancer cell proliferation, ligand not bound to iron: ligand-only control; for effect on cancer cell proliferation, ligand not bound to iron / effect on cell proliferation: 72 h; for effect on cell proliferation: iron compounds, 5 or 10% FBS, at concentrations predicted in gut lumen with iron supplementation", "method": "FIG. 3: Inhibition of cell proliferation in the HT29 human epithelial colorectal adenocarcinoma cell line with the different iron compounds as assessed by real time live cell imaging (Incucyte™). Conditions were as above in the legend to FIG. 2.\n(§1) A stock solution of ferric citrate (FeCitrate) 8 mM [Fe] was produced by adding citric acid to ferric chloride on a 1:1 molar ratio. Ferric trimaltol (FTMB) was produced from iron hydroxides and maltol, and the stock solution of circa 8 mM [Fe] was produced by dissolving it in ultrapure water. All stock solutions were filter sterilised (0.2 μm).\n(§2) Three different epithelial cancer cell lines were used: colorectal adenocarcinoma [Caco2 (ATCC) and HT29(ECAAC)] and duodenum adenocarcinoma [Hutu 80 (ATCC)]. The cells were grown in an incubator at 37° C. and an atmosphere of 5% CO2 and 95% air at a relative humidity of approximately 95%. The cancer cells were grown in Gibco® MEM supplemented with 5 or 10% foetal bovine serum (FBS) as stated, 1% penicillin/streptomycin (10.000 Units/ml Penicillin, 10.000 μg/ml Streptomycin) and 1% fungizone (Amphotericin B, 250 μg/ml).\n(§3) Working solutions of 2 mM [Fe] for each iron compound were prepared fresh on the day of the experiment by diluting the stock solutions of the different iron materials in complete cell growth medium and these 2 mM solutions were used in the serial dilutions to achieve the 8 different concentrations for the proliferation assay (0.89, 0.49, 0.27, 0.15, 0.08, 0.05, 0.026, 0.015) in 96-well ImageLock cell culture plates. A control condition containing only complete growth medium without any iron compound added was also tested. The cells were seeded at a density of 10,000-20,000 cells/well. The plates were incubated in a Live Content Imaging Incubator (Incucyte ZOOM, Essen BioScience Ltd., UK) and images and confluence data were acquired every 3 hours for 72 hours post-seeding. Within each experiment each iron concentration was tested in triplicate wells.\n(§4) The plot of confluence (%) vs time (h) was obtained for each iron compound and concentration. The area under the curve (AUC) was calculated and plotted against the concentration for each test compound or the control. The AUC for each iron compound was normalised against that of the control (i.e. complete growth medium alone)."}, "[2]": {"tested_on": "Hutu 80 human epithelial duodenum adenocarcinoma cell line", "experiment": "Proliferation assay by real time live cell imaging (Incucyte), Hutu 80", "assay_type": "cell-based", "settings": "for effect on cancer cell proliferation, ligand not bound to iron: ligand-only control; for effect on cancer cell proliferation, ligand not bound to iron / effect on cell proliferation: 72 h; for effect on cell proliferation: iron compounds, 5 or 10% FBS, at concentrations predicted in gut lumen with iron supplementation", "method": "(§5) FIG. 2: Inhibition of cell proliferation in the Hutu 80 human epithelial duodenum adenocarcinoma cell line with different iron compounds as assessed by real time live cell imaging (Incucyte™) Cells were treated for 72 h with the indicated iron compounds in complete growth media containing 5% FBS (A) or 10% FBS (B), the corresponding ‘ligand-only’ controls are shown in panels C and D. Normalised cell proliferation corresponds to the area under the proliferation curve for cells grown in media supplemented with each compound divided by the area under the curve for cells grown in media alone (i.e. without any of the supplemented compounds). Data are presented as mean with SEM (n=2 independent experiments with 3 replicates for each experiment).\nas §1, §2, §3, §4"}, "[3]": {"tested_on": "intestinal cancer", "settings": "animal models; cited from earlier work"}, "[4]": {"tested_on": "Caco2 human epithelial colorectal adenocarcinoma cell line", "experiment": "Proliferation assay by real time live cell imaging (Incucyte), Caco2", "assay_type": "cell-based", "settings": "for effect on cell proliferation: iron compounds, 5 or 10% FBS, at concentrations predicted in gut lumen with iron supplementation", "method": "as §5, with “1. […]” for “2: Inhibition of cell proliferation in the Hutu 80 human epithelial duodenum adenocarcinoma cell line with different iron compounds as assessed by real time live cell imaging (Incucyte™)”, “(n=3” for “(n=2”\nas §1, §2, §3, §4"}, "[5]": {"settings": "patients with inflammatory bowel disease; cited from earlier work"}, "[6]": {"settings": "review of real time-recorded cell images, concentration as iron"}},
  "data": [
    {"compound": "O=C(O)CN(CCN(CC(=O)O)CC(=O)O)CC(=O)O", "note": "[EDTA]", "values": [
      {"measurement": "effect on cancer cell proliferation, ligand not bound to iron", "setting": "[1]", "value": "moderate inhibition"},
      {"measurement": "effect on cancer cell proliferation, ligand not bound to iron", "setting": "[2]", "value": "moderate inhibition"}
    ]},
    {"compound": "O=C([O-])CN(CCN(CC(=O)[O-])CC(=O)[O-])CC(=O)[O-].[Fe+3].[Na+]", "note": "[ferric EDTA, ferric EDTA sodium salt]", "values": [
      {"measurement": "effect on cell proliferation", "setting": "[1]", "value": "promoted proliferation"},
      {"measurement": "effect on cell proliferation", "setting": "[2]", "value": "promoted proliferation"},
      {"measurement": "effect on intestinal cancer", "setting": "[3]", "value": "enhance intestinal cancer"}
    ]},
    {"compound": "Cc1occc(=O)c1[O-].Cc1occc(=O)c1[O-].Cc1occc(=O)c1[O-].[Fe+3]", "note": "[ferric trimaltol]", "values": [
      {"measurement": "effect on cell proliferation", "setting": "[4]; 72 h", "value": "inhibited cancer cell proliferation"},
      {"measurement": "iron concentration at which cells were non-proliferative", "setting": "[4]; [6]", "value": 80, "unit": "µM"},
      {"measurement": "iron concentration at which cells were poorly proliferating", "setting": "[4]; [6]", "value": 50, "unit": "µM"},
      {"measurement": "effect on cell proliferation", "setting": "[1]", "value": "inhibited cancer cell proliferation"},
      {"measurement": "iron concentration at which cells were non-proliferative", "setting": "[1]; [6]", "value": 80, "unit": "µM"},
      {"measurement": "iron concentration at which cells were poorly proliferating", "setting": "[1]; [6]", "value": 50, "unit": "µM"},
      {"measurement": "effect on cell proliferation", "setting": "[2]", "value": "inhibited cancer cell proliferation"},
      {"measurement": "iron concentration at which cells were non-proliferative", "setting": "[2]; [6]", "value": 400, "unit": "µM"},
      {"measurement": "iron concentration at which cells were poorly proliferating", "setting": "[2]; [6]", "value": 150, "unit": "µM"},
      {"measurement": "correction of iron deficiency anaemia", "setting": "[5]", "value": "effectively delivers iron to correct iron deficiency anaemia"}
    ]},
    {"compound": "O.O.O.O.O.O.O.O=S(=O)([O-])[O-].[Fe+2]", "note": "[ferrous sulphate, Ferrous sulphate heptahydrate]", "values": [
      {"measurement": "effect on cell proliferation", "setting": "[1]", "value": "promoted proliferation"},
      {"measurement": "effect on cell proliferation", "setting": "[2]", "value": "promoted proliferation"}
    ]},
    {"compound": "Cc1occc(=O)c1O", "note": "[maltol, 3-Hydroxy-2-methyl-4H-pyran-4-one]", "values": [
      {"measurement": "effect on cancer cell proliferation, ligand not bound to iron", "setting": "[4]; ligand-only control, 72 h", "value": "moderate inhibition"},
      {"measurement": "effect on cancer cell proliferation, ligand not bound to iron", "setting": "[1]", "value": "moderate inhibition"},
      {"measurement": "effect on cancer cell proliferation, ligand not bound to iron", "setting": "[2]", "value": "moderate inhibition"}
    ]},
    {"compound": "ferric citrate", "values": [
      {"measurement": "effect on cell proliferation", "setting": "[4]; 72 h", "value": "promoted proliferation"},
      {"measurement": "effect on cell proliferation", "setting": "[1]", "value": "promoted proliferation"},
      {"measurement": "effect on cell proliferation", "setting": "[2]", "value": "promoted proliferation"},
      {"measurement": "effect on intestinal cancer", "setting": "[3]", "value": "enhance intestinal cancer"}
    ]}
  ]
}
